Source: ChEMBL document CHEMBL4190372, “Discovery of a Novel Oral Glucocorticoid Receptor Modulator (AZD9567) with Improved Side Effect Profile” (J Med Chem, 2018)
In brackets after ≈: the same amount, converted by molar mass.

How the values were obtained:
[1] = biological target: T1, Glucocorticoid receptor (Homo sapiens, UniProt P04150); experiment: Antagonist activity at glucocorticoid receptor (unknown origin) expressed in human ChaGoK1 cells assessed as inhibition of dexamethasone induced transactivation incubated for 24 hrs by beta-galactosidase reporter gene assay; format: cell-based
T1 sequence (P04150 whole entry): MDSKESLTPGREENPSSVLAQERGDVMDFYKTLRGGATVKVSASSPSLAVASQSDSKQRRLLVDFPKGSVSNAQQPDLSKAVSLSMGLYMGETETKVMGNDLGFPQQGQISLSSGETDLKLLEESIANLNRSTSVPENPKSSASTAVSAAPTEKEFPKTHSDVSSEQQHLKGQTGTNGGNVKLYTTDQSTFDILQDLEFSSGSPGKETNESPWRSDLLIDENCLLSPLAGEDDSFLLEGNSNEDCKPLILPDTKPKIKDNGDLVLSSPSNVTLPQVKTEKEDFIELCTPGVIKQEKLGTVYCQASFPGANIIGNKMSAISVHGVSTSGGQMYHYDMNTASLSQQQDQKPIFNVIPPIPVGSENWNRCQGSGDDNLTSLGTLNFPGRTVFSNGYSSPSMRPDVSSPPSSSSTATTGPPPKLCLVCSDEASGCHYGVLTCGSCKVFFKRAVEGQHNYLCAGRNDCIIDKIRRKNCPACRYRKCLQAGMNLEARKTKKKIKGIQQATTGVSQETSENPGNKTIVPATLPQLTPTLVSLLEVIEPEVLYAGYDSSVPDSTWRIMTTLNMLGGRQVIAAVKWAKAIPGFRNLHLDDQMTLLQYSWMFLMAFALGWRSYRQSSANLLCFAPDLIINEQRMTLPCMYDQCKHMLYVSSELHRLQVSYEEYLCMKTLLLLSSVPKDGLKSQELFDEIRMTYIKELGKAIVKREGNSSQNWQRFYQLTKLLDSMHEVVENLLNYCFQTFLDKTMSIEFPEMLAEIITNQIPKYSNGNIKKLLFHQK

[2] = biological target: T1, Glucocorticoid receptor
Description: Transrepression activity at glucocorticoid receptor (unknown origin) expressed in human ChaGoK1 cells assessed as inhibition of PMA-stimulated gene expression incubated for 24 hrs by beta-galactosidase reporter gene assay

[3] = Aqueous solubility of the compound; format: physicochemical
[4] = biological target: T1, Glucocorticoid receptor; experiment: Displacement of fluormone RED from human full length glucocorticoid receptor after 4 hrs by fluorescence polarization assay
[5] = biological target: T1, Glucocorticoid receptor; remark: listed apart in the source
Description: Transactivation activity at glucocorticoid receptor (unknown origin) expressed in human ChaGoK1 cells incubated for 24 hrs by beta-galactosidase reporter gene assay

[6] = tested on: Hepatocyte; experiment: Stability in human hepatocytes; format: ADME, cell-based
[7] = biological target: T2, Glucocorticoid receptor (Homo sapiens) (UniProt P04150)
T2 sequence (whole entry): T1 sequence (P04150 whole entry)
Description: Transrepression of GR in cryopreserved human fetal osteoblasts assessed as inhibition of OPG mRNA expression after 4 hrs by RT-qPCR analysis

[8] = tested on: Hepatocyte; experiment: Stability in rat hepatocytes; format: ADME, cell-based
[9] = biological target: T2, Glucocorticoid receptor (Homo sapiens); remark: listed apart in the source
Description: (§1) Transrepression of GR in human whole blood assessed as inhibition of LPS-induced TNF-alpha release preincubated for 45 mins followed by LPS addition after 18 hrs by AlphaLISA method

[10] = biological target: T1, Glucocorticoid receptor; remark: listed apart in the source
Description: as §1

[11] = biological target: T1, Glucocorticoid receptor; settings: blood
Description: Therapeutic index, ratio of fIC20 for transrepression of GR in cryopreserved human fetal osteoblasts assessed as inhibition of OPG mRNA expression to fIC30 for transrepression of GR in human whole blood assessed as inhibition of LPS-induced TNF-alpha release

CC(C)[C@H](NC(=O)C(C)(F)F)[C@H](Oc1ccc2c(cnn2-c2ccc(F)cc2)c1)c1ccccc1
IC50 [1]: 13 nM | IC50 [2]: < 0.34 nM | solubility ([3]; aqueous, read-out: solubility): < 0.08 µM | IC50 [4]: < 14 nM | EC50 [5]: 3.9 nM

COc1ccc(-n2ncc3cc(O[C@H](c4ccccc4)[C@@H](NC(=O)C(C)(F)F)C(C)C)ccc32)cn1
solubility ([3]; aqueous, read-out: solubility): < 0.5 µM | IC50 [4]: 57 nM

COc1ccc([C@@H](Oc2ccc3c(cnn3-c3ccc(F)cc3)c2)[C@H](COC(C)(C)C)NC(=O)C(C)(F)F)cn1
solubility ([3]; aqueous, read-out: solubility): < 0.01 µM

COc1ccc([C@@H](Oc2ccc(C#N)cc2)[C@H](C)NC(=O)C(C)(F)F)cn1
IC50 [2]: 70 nM | solubility ([3]; aqueous, read-out: solubility): 290 µM (≈ 109 µg/mL) | IC50 [4]: < 6.8 nM

CC(C)[C@H](NC(=O)C(C)(F)F)[C@H](Oc1ccc2c(cnn2-c2cccn(C)c2=O)c1)c1ccccc1
IC50 [2]: 11 nM | solubility ([3]; aqueous, read-out: solubility): 160 µM (≈ 79.1 µg/mL) | IC50 [4]: 6.1 nM | EC50 [5]: 27 nM

Cn1cc(-n2ncc3cc(O[C@H](c4ccccc4)[C@H](CC4CC4)NC(=O)C(C)(F)F)ccc32)ccc1=O
solubility ([3]; aqueous, read-out: solubility): 20 µM (≈ 10.1 µg/mL)

CC(C)[C@H](NC(=O)C(C)(F)F)[C@H](Oc1ccc2c(cnn2-c2cscn2)c1)c1ccccc1
IC50 [1]: 131 nM | IC50 [2]: 3.3 nM | solubility ([3]; aqueous, read-out: solubility): 5.8 µM (≈ 2.73 µg/mL) | IC50 [4]: 52 nM | EC50 [5]: 29 nM

CC(C)[C@H](NC(=O)C(C)(F)F)[C@H](Oc1ccc2c(cnn2-c2cnc(=O)n(C)c2)c1)c1ccccc1
IC50 [2]: 51 nM | solubility ([3]; aqueous, read-out: solubility): 5.1 µM (≈ 2.53 µg/mL) | EC50 [5]: 87 nM

CCC[C@H](NC(=O)C(C)(F)F)[C@H](Oc1ccc2c(cnn2-c2ccc(=O)n(C)c2)c1)c1ccccc1
solubility ([3]; aqueous, read-out: solubility): 22 µM (≈ 10.9 µg/mL)

N#Cc1ccc(O[C@H](c2cnc(C3CC3)nc2)[C@@H](NC(=O)C(F)(F)F)C2CC2)c(Br)c1
Stability [6]: Stable | IC50 [1]: 221 nM | fIC20 [7]: 0.5 nM | IC50 [2]: 21 nM | solubility ([3]; aqueous, read-out: solubility): 86 µM (≈ 42.6 µg/mL) | Stability [8]: Stable | IC50 [4]: 14 nM | fIC30 [9]: 36 nM | IC50 [10]: 340 nM | TI [11]: 0.014

CC(C)[C@H](NC(=O)C(C)(F)F)[C@H](Oc1ccc2c(cnn2-c2ccns2)c1)c1ccccc1
IC50 [2]: 39 nM | solubility ([3]; aqueous, read-out: solubility): 0.96 µM (≈ 0.452 µg/mL)

COc1ccc([C@@H](Oc2ccc3c(cnn3-c3ccc(F)cc3)c2)[C@H](C)NC(=O)C2CC2)cn1
solubility ([3]; aqueous, read-out: solubility): 1 µM (≈ 0.461 µg/mL)

CC(C)[C@H](NC(=O)C(C)(F)F)[C@H](Oc1ccc2c(cnn2-c2ccc(=O)n(C)c2)c1)c1cccc(Cl)c1
IC50 [1]: 324 nM | IC50 [2]: 1.7 nM | solubility ([3]; aqueous, read-out: solubility): 10 µM (≈ 5.29 µg/mL) | IC50 [4]: 2.6 nM | EC50 [5]: 2.9 nM

CC[C@H](NC(=O)C(F)(F)F)[C@H](Oc1ccc(C#N)cc1Br)c1cnc(C2CC2)nc1
Stability [6]: Stable | IC50 [1]: 560 nM | IC50 [2]: 9.6 nM | solubility ([3]; aqueous, read-out: solubility): 110 µM (≈ 53.2 µg/mL) | Stability [8]: Stable | IC50 [4]: 9.3 nM | EC50 [5]: 54 nM

CC(O)[C@H](NC(=O)C(C)(F)F)[C@H](Oc1ccc2c(cnn2-c2ccc(=O)n(C)c2)c1)c1ccccc1 (stereo partly drawn)
solubility ([3]; aqueous, read-out: solubility): 250 µM (≈ 124 µg/mL)

CC(C)[C@H](NC(=O)C(F)(F)F)[C@H](Oc1ccc2c(cnn2-c2ccc(F)cc2)c1)c1ccccc1
IC50 [1]: 25 nM | IC50 [2]: < 0.42 nM | solubility ([3]; aqueous, read-out: solubility): < 0.1 µM | IC50 [4]: 16 nM | EC50 [5]: 5.4 nM

CC(C)(C)OC[C@H](NC(=O)C(F)(F)F)[C@H](Oc1ccc(C#N)cc1Br)c1cnc(C2CC2)nc1
Stability [6]: Stable | IC50 [1]: 516 nM | solubility ([3]; aqueous, read-out: solubility): 18 µM (≈ 9.74 µg/mL) | Stability [8]: Stable | IC50 [4]: 160 nM

CC(C)[C@H](NC(=O)C(C)(F)F)[C@H](Oc1ccc2c(cnn2-c2cc(F)c(=O)n(C)c2)c1)c1ccccc1
IC50 [1]: 301 nM | IC50 [2]: 5.6 nM | solubility ([3]; aqueous, read-out: solubility): 14 µM (≈ 7.18 µg/mL) | IC50 [4]: < 3.2 nM | EC50 [5]: 18 nM

COc1ccc([C@@H](Oc2ccc3c(cnn3-c3ccc(F)cc3)c2)[C@H](Cc2ccccc2)NC(=O)C(C)(F)F)cn1
IC50 [1]: 92 nM | IC50 [2]: 2 nM | solubility ([3]; aqueous, read-out: solubility): < 0.1 µM | IC50 [4]: 32 nM | EC50 [5]: 8.7 nM

Cc1ncccc1NC(=O)c1ccc2c(c1)CC[C@@H]1C[C@@](O)(C(F)(F)F)CC[C@@]21Cc1ccccc1 [DAGROCORAT]
IC50 [1]: 8.9 nM | fIC20 [7]: 0.0667 nM | IC50 [2]: 0.69 nM | solubility ([3]; aqueous, read-out: solubility): 3.2 µM (≈ 1.58 µg/mL) | IC50 [4]: < 7.2 nM | fIC30 [9]: 2.3 nM | IC50 [10]: 35 nM | TI [11]: 0.029 | EC50 [5]: 4.8 nM

CC(C)[C@H](NC(=O)C(C)(F)F)[C@H](Oc1ccc2c(cnn2-c2ccc(=O)n(C)c2)c1)c1cc(F)cc(F)c1
IC50 [1]: 23 nM | fIC20 [7]: 0.12 nM | IC50 [2]: 2.2 nM | solubility ([3]; aqueous, read-out: solubility): 21 µM (≈ 11.1 µg/mL) | IC50 [4]: 4.7 nM | fIC30 [9]: 0.7 nM | IC50 [10]: 120 nM | TI [11]: 0.17 | EC50 [5]: 2.7 nM

CC#C[C@]1(O)CC[C@H]2[C@@H]3CCC4=CC(=O)CCC4=C3[C@@H](c3ccc(N(C)C)cc3)C[C@@]21C [MIFEPRISTONE]
solubility ([3]; aqueous, read-out: solubility): 6.9 µM (≈ 2.96 µg/mL)

C[C@H](NC(=O)C(F)(F)F)[C@H](Oc1ccc(C#N)cc1Br)c1cnc(C2CC2)nc1
Stability [6]: Stable | IC50 [2]: 2.5 nM | solubility ([3]; aqueous, read-out: solubility): 97 µM (≈ 45.5 µg/mL) | Stability [8]: Stable | IC50 [4]: 2.4 nM | EC50 [5]: 23 nM

COc1ccc([C@@H](Oc2ccc3c(cnn3-c3ccc(F)cc3)c2)[C@@H](NC(=O)C(C)(F)F)C(C)C)cn1
IC50 [1]: 70 nM | IC50 [2]: 0.57 nM | solubility ([3]; aqueous, read-out: solubility): < 0.01 µM | IC50 [4]: 18 nM | EC50 [5]: 3.5 nM

CC[C@H](NC(=O)C(C)(F)F)[C@H](Oc1ccc2c(cnn2-c2ccc(=O)n(C)c2)c1)c1ccccc1
solubility ([3]; aqueous, read-out: solubility): 51 µM (≈ 24.5 µg/mL)

C[C@H](NC(=O)C(C)(F)F)[C@H](Oc1ccc(C#N)cc1Br)c1cnc(C2CC2)nc1
Stability [6]: Stable | IC50 [2]: 1.1 nM | solubility ([3]; aqueous, read-out: solubility): 110 µM (≈ 51.2 µg/mL) | Stability [8]: Stable | IC50 [4]: 2.4 nM | EC50 [5]: 6.4 nM

N#Cc1ccc(O[C@H](c2cnc(C3CC3)nc2)[C@H](CO)NC(=O)C(F)(F)F)c(Br)c1
solubility ([3]; aqueous, read-out: solubility): > 730 µM | IC50 [4]: 42 nM

Cn1cc(-n2ncc3cc(O[C@H](c4ccccc4)[C@@H](NC(=O)C(C)(F)F)C4CC4)ccc32)ccc1=O
solubility ([3]; aqueous, read-out: solubility): 48 µM (≈ 23.6 µg/mL)

CC(C)[C@H](NC(=O)C(F)(F)F)[C@H](Oc1ccc2c(cnn2-c2ccc(=O)n(C)c2)c1)c1cccc(Cl)c1
IC50 [1]: 114 nM | fIC20 [7]: 0.92 nM | IC50 [2]: 3 nM | solubility ([3]; aqueous, read-out: solubility): 9.6 µM (≈ 5.12 µg/mL) | IC50 [4]: < 3 nM | fIC30 [9]: 1.6 nM | IC50 [10]: 420 nM | TI [11]: 0.58 | EC50 [5]: 5.6 nM

CC(C)[C@H](NC(=O)C(C)(F)F)[C@H](Oc1ccc2c(cnn2-c2cc(C#N)c(=O)n(C)c2)c1)c1ccccc1
IC50 [2]: 27 nM | solubility ([3]; aqueous, read-out: solubility): 11 µM (≈ 5.72 µg/mL) | IC50 [4]: 7.2 nM | EC50 [5]: 110 nM

CCS(=O)(=O)c1cc2cc(C[C@](O)(CC(C)(C)c3ccc(F)cc3C(N)=O)C(F)(F)F)[nH]c2cn1 [BI 653048]
solubility ([3]; buffer): 160 µM (≈ 82.5 µg/mL)

C[C@H](NC(=O)C(C)(F)F)[C@H](Oc1ccc2c(cnn2-c2ccc(=O)n(C)c2)c1)c1ccccc1
IC50 [2]: 1.6 nM | solubility ([3]; aqueous, read-out: solubility): 140 µM (≈ 65.3 µg/mL) | EC50 [5]: 2.3 nM
